Data as given in the NIST ThermoML archive (doi:10.1016/j.fluid.2016.09.021).
± gives the expanded uncertainty stated by the source.

Details: Liquid, Vibrating tube method

CCCCCCC [heptane]
mass density [kg/m3]
Details | 293 K | 313 K | 333 K | 353 K | 373 K | 393 K | 413 K | 433 K | 448 K | 468 K
2100 kPa | 687.2 ± 2 | 671.9 ± 2 | 654.8 ± 2 | 636.1 ± 2 | 616.9 ± 2 | 596.5 ± 2 | 574.1 ± 2 | 550.1 ± 2 | 531.1 ± 2 | 501.1 ± 2
3000 kPa | 688.1 ± 2 | 672.9 ± 2 | 656 ± 2 | 637.6 ± 2 | 618.6 ± 2 | 598.7 ± 2 | 577 ± 2 | 553.9 ± 2 | 535.6 ± 2 | 507.8 ± 2
4000 kPa | 688.9 ± 2 | 673.9 ± 2 | 657.7 ± 2 | 639.1 ± 2 | 620.3 ± 2 | 600.8 ± 2 | 579.6 ± 2 | 557.5 ± 2 | 539.8 ± 2 | 513.4 ± 2
5000 kPa | 689.8 ± 2 | 674.8 ± 2 | 658.4 ± 2 | 640.4 ± 2 | 622 ± 2 | 602.8 ± 2 | 582.1 ± 2 | 560.7 ± 2 | 543.6 ± 2 | 518.6 ± 2
10000 kPa | 694 ± 2 | 679.4 ± 2 | 663.9 ± 2 | 647.1 ± 2 | 629.9 ± 2 | 612.2 ± 2 | 593.6 ± 2 | 574.6 ± 2 | 560 ± 2 | 539.1 ± 2
20000 kPa | 701.8 ± 2 | 688 ± 2.1 | 673.8 ± 2.1 | 658.5 ± 2.1 | 643.2 ± 2.1 | 627.8 ± 2.1 | 611.9 ± 2.1 | 595.4 ± 2.1 | 583 ± 2.1 | 566.5 ± 2.1
30000 kPa | 708.7 ± 2.1 | 695.4 ± 2.1 | 682.3 ± 2.1 | 668 ± 2.1 | 654.1 ± 2.1 | 640.2 ± 2.1 | 626 ± 2.1 | 611.5 ± 2.1 | 600.3 ± 2.1 | 586.2 ± 2.1
40000 kPa | 714.8 ± 2.1 | 702.2 ± 2.1 | 689.5 ± 2.1 | 676.7 ± 2.1 | 663.6 ± 2.1 | 650.8 ± 2.1 | 637.6 ± 2.1 | 624.3 ± 2.1 | 614.4 ± 2.2 | 601.3 ± 2.2
49900 kPa | 720.8 ± 2.1 | 708.5 ± 2.1 | 696.5 ± 2.1 | 684.5 ± 2.1 | 672 ± 2.2 | 659.9 ± 2.2 | 647.8 ± 2.2 | 635.2 ± 2.2 | 626.2 ± 2.2 | 614.2 ± 2.2
59900 kPa | 726.4 ± 2.2 | 714.3 ± 2.2 | 703.1 ± 2.2 | 691.3 ± 2.2 | 679.6 ± 2.2 | 668.3 ± 2.2 | 656.9 ± 2.2 | 644.7 ± 2.2 | 636.6 ± 2.2 | 625.3 ± 2.3
69900 kPa | 731.6 ± 2.2 | 720 ± 2.2 | 708.9 ± 2.2 | 697.9 ± 2.2 | 686.7 ± 2.2 | 675.9 ± 2.2 | 664.7 ± 2.3 | 653.5 ± 2.3 | 646.2 ± 2.3 | 635.2 ± 2.3
79900 kPa | 736.8 ± 2.2 | 725.2 ± 2.2 | 714.5 ± 2.2 | 703.8 ± 2.3 | 693.3 ± 2.3 | 682.9 ± 2.3 | 672.4 ± 2.3 | 661.6 ± 2.3 | 654.4 ± 2.3 | 644.1 ± 2.4
89900 kPa | 741.5 ± 2.3 | 730.3 ± 2.3 | 720 ± 2.3 | 709.7 ± 2.3 | 699.4 ± 2.3 | 689.5 ± 2.3 | 679.3 ± 2.4 | 669 ± 2.4 | 661.8 ± 2.4 | 652.3 ± 2.4
99900 kPa | 746.1 ± 2.3 | 735.1 ± 2.3 | 725.2 ± 2.3 | 715 ± 2.3 | 705.2 ± 2.4 | 695.7 ± 2.4 | 685.8 ± 2.4 | 676 ± 2.4 | 669.2 ± 2.4 | 659.9 ± 2.5
109900 kPa | 750.6 ± 2.3 | 739.9 ± 2.3 | 729.8 ± 2.4 | 720.3 ± 2.4 | 710.7 ± 2.4 | 701.4 ± 2.4 | 692.2 ± 2.5 | 682.3 ± 2.5 | 675.8 ± 2.5 | 667.2 ± 2.5
119900 kPa | 754.9 ± 2.4 | 744.3 ± 2.4 | 734.7 ± 2.4 | 725.3 ± 2.4 | 716 ± 2.5 | 706.8 ± 2.5 | 698 ± 2.5 | 688.5 ± 2.5 | 682.3 ± 2.5 | 673.9 ± 2.6
129900 kPa | 759.2 ± 2.4 | 748.7 ± 2.4 | 739.3 ± 2.5 | 730.1 ± 2.5 | 720.9 ± 2.5 | 712.1 ± 2.5 | 703.6 ± 2.6 | 694.3 ± 2.6 | 688.4 ± 2.6 | 679.9 ± 2.6
134900 kPa | 761.2 ± 2.4 | 751 ± 2.4 | 741.4 ± 2.5 | 732.4 ± 2.5 | 723.3 ± 2.5 | 714.7 ± 2.6 | 706.2 ± 2.6 | 697.2 ± 2.6 | 691.4 ± 2.6 | 682.8 ± 2.7
137400 kPa | 762.2 ± 2.4 | 751.9 ± 2.5 | 742.6 ± 2.5 | 733.5 ± 2.5 | 724.5 ± 2.5 | 715.8 ± 2.6 | 707.4 ± 2.6 | 698.6 ± 2.6 | 692.6 ± 2.6 | 684.3 ± 2.7

c1ccccc1 [benzene]
mass density [kg/m3]
Details | 293 K | 313 K | 333 K | 353 K | 373 K | 393 K | 413 K | 433 K | 448 K | 468 K
2100 kPa | 877.4 ± 2 | 857 ± 2.1 | 835.1 ± 2 | 813.1 ± 2.1 | 790.7 ± 2.1 | 767.6 ± 2.2 | 743 ± 2.3 | 716.7 ± 2.4 | 696 ± 2.5 | 666.9 ± 2.5
3100 kPa | 878.1 ± 2 | 857.8 ± 2 | 836 ± 2 | 814.2 ± 2.1 | 792.1 ± 2.1 | 769.4 ± 2.1 | 745.1 ± 2.2 | 719.4 ± 2.3 | 699.2 ± 2.4 | 670.7 ± 2.5
4100 kPa | 878.8 ± 2 | 858.7 ± 2 | 837 ± 2.1 | 815.4 ± 2.1 | 793.4 ± 2.1 | 770.9 ± 2.1 | 747 ± 2.2 | 721.8 ± 2.2 | 702.1 ± 2.3 | 674.3 ± 2.5
5000 kPa | 879.6 ± 2 | 859.6 ± 2 | 838 ± 2.1 | 816.5 ± 2.1 | 794.7 ± 2.1 | 772.5 ± 2.1 | 748.8 ± 2.1 | 724 ± 2.2 | 704.8 ± 2.3 | 677.8 ± 2.5
10100 kPa | 883.4 ± 2 | 863.9 ± 2 | 842.7 ± 2 | 822.3 ± 2.1 | 801.4 ± 2.1 | 780 ± 2.1 | 758 ± 2.1 | 735.4 ± 2.2 | 717.8 ± 2.2 | 693.2 ± 2.3
20000 kPa | 890.4 ± 2 | 871.5 ± 2 | 851.8 ± 2 | 832.3 ± 2.1 | 812.9 ± 2.1 | 793 ± 2.1 | 773.2 ± 2.1 | 753 ± 2.1 | 738 ± 2.2 | 717 ± 2.2
30000 kPa | 896.9 ± 2 | 878.7 ± 2 | 859.4 ± 2 | 841.2 ± 2 | 823.1 ± 2.1 | 804.5 ± 2.1 | 786.2 ± 2.1 | 767.8 ± 2.1 | 754.2 ± 2.1 | 735.1 ± 2.2
40000 kPa | 902.9 ± 2 | 885.2 ± 2 | 867 ± 2 | 849.5 ± 2.1 | 832.3 ± 2.1 | 814.6 ± 2.1 | 797.5 ± 2.1 | 780.3 ± 2.1 | 767.8 ± 2.1 | 750.3 ± 2.1
50000 kPa | 908.6 ± 2 | 891.6 ± 2 | 874.2 ± 2 | 857 ± 2.1 | 840.7 ± 2.1 | 824 ± 2.1 | 807.8 ± 2.1 | 791.6 ± 2.1 | 779.8 ± 2.1 | 763.6 ± 2.1
60000 kPa | 914 ± 2 | 897.5 ± 2 | 880.8 ± 2 | 864.3 ± 2.1 | 848.2 ± 2.1 | 832.6 ± 2.1 | 817.2 ± 2.1 | 801.7 ± 2.1 | 790.6 ± 2.1 | 775.5 ± 2.1
70000 kPa | 919.6 ± 2 | 902.9 ± 2 | 886.7 ± 2 | 871.2 ± 2.1 | 855.7 ± 2.1 | 841 ± 2.1 | 825.8 ± 2.1 | 811 ± 2.1 | 800.3 ± 2.1 | 786.1 ± 2.1
